Experimental data reported in US9587171B2, “Ammonium salts of chelating agents and their use in oil and gas field applications” (AKZO NOBEL CHEMICALS INTERNATIONAL B.V., priority 2010, dated 2017).

Assay: Descaling efficiency for iron sulfide (FeS) at pH 3.8 as a function of temperature
Format: physicochemical
Settings: 20° C., 24 hours, FIG. 4
Protocol: The Parr bomb was placed in an oven at 90° C. The beaker glass was closed with parafilm. After 24 hours at temperature the samples were filtered by a 0.45 micron filter prior to ICP-ES analysis. The descaling efficiency was calculated from the iron concentration in the liquid and the initial amount of FeS.

O=C([O-])CC[C@@H](C(=O)[O-])N(CC(=O)[O-])CC(=O)[O-].[Na+].[Na+].[Na+].[Na+] [sodium GLDA]
descaling efficiency for FeS at low temperature: dissolved more FeS at low temperature
